# From patent US7629439B2, “Peptides derived from the protein MMP-2, and the use thereof in antitumoral immunotherapy” (INSERM (Institut National de la Sante et de la Recherche …, priority 2003, dated 2009)
# Tested on: T2 cells
# Experiment: 51Cr release: sensitization of T2 cells to lysis by CTL clone M134.12
# Format: cell-based
# Details: 51Cr-labeled T2 cells, 60 minutes at 37° C. with peptide, effector/target ratio 10/1, 4 hours; compared among four peptides (FIG. 4)
# Procedure: These peptides were used to sensitize T2 cells labeled with ^51Cr. These cells were incubated for 60 minutes at 37° C. with various concentrations of each of the peptides to be tested. CTL M134.12 effector cells were then added at an effector cell/target cell ratio of 10/1. The amount of ^51Cr released into the supernatant is measured 4 hours later.
# Along the y-axis, the percentage specific lysis.
# Along the x-axis, the concentration of peptide LGLPPDVQRV (●) (SEQ ID NO: 2), GLPPDVQRV (▪) (SEQ ID NO: 1), LPPDVQRV (▴) (SEQ ID NO: 3), or GLPPDVQR(X) (SEQ ID NO: 4) in nM.
sequence,measurement,value
"GLPPDVQRV (listed as Homo sapiens) [peptide derived from region 556-593 of the MMP-2 protein, presented by HLA-A*0201]",sensitizing T2 cells to lysis by the CTL clone M134.12 (percentage specific lysis),most effective
